Assay [1] deals with endometriotic lesions from human endometrial tissue. The settings on record: earlier work using this model; positive control; cited from earlier work.
Assay [2] relates to human endometrial tissue organ cultures. Kind of assay: Proliferative organ culture model (MMP-3 Western blot). In kind it is cell-based. From the text: Normal endometrial tissues were acquired just prior to ovulation by biopsy from a donor population (no history of endometriosis) and from women with surgically confirmed endometriosis. Informed consent was obtained prior to biopsy and the use of human tissues was approved by Vanderbilt University's Institutional Review Board and Committee for the Protection of Human Subjects.
Endometrial biopsies were dissected into small cubes (˜1×1 mm^3) and 8-10 pieces of tissue per treatment group were suspended in tissue culture inserts. Organ cultures were maintained a total of 72 hrs at 37° C. in DME/F-12 media with serum supplements. Tissue treatments included 17β-estradiol (E), E plus progesterone (P), or E plus medroxy progesterone acetate (MPA) with and without the JNK inhibitor. Cultures were maintained for 24 hours in E only until the initiation of experimental conditions. JNK inhibitor was used at a concentration of 5 or 15 μM and MPA was used at a concentration of 50, 100 or 250 μM.
Media was collected from organ cultures and secreted proteins quantified using the Coomassie Plus Protein Assay (Pierce) and 20 μg total protein subjected to 10% SDS-PAGE. Proteins were transferred to PVDF membrane and blocked in PBS with 10% non-fat milk and 0.05% Tween-20. […]

The next assay deals with endometriotic-like foci. The assay is described as follows: Rat model of experimentally induced endometriosis. In kind it is in vivo. The settings on record: for comparison; data not shown. An excerpt:
The control group received the vehicle only.

The conditions of assay [3]: cited from earlier work.

As for `CC(=O)[C@H]1CC[C@H]2[C@@H]3CCC4=CC(=O)CC[C@]4(C)[C@H]3CC[C@]12C` [progesterone], in assay [1], the disease progression entry was “prevents disease progression”.

For the compound `CC(=O)O[C@]1(C(C)=O)CC[C@H]2[C@@H]3C[C@H](C)C4=CC(=O)CC[C@]4(C)[C@H]3CC[C@@]21C` [MPA, medroxy progesterone acetate], the “sensitivity to MPA treatment” value is reported as “failed to regress” in assay [2] (endometrial cultures from endometriosis patients) and “sensitive” in assay [2] (endometrial cultures from normal volunteers).

In the case of antide, the “regression of established endometriotic lesions” value with endometriotic-like foci is reported as “about 85%”. As for `C#C[C@]1(O)CC[C@H]2[C@@H]3CCC4=Cc5oncc5C[C@]4(C)[C@H]3CC[C@@]21C` [Danazol], the “patients suffering from pain with improved symptoms” value in assay [3] was 66-100%.

(Values after US8658640B2, “JNK inhibitors for the treatment of endometriosis” (Merck Serono SA, priority 2005, dated 2014).)
